Target: T1, human PPARα ligand binding domain fused to GAL4 DNA binding domain (Homo sapiens, UniProt Q07869)
T1 construct: human PPARα (including amino acid residues 167-468); expressed in transfected cells; host or cells: COS-1 cells
T1 sequence (Q07869 167-468): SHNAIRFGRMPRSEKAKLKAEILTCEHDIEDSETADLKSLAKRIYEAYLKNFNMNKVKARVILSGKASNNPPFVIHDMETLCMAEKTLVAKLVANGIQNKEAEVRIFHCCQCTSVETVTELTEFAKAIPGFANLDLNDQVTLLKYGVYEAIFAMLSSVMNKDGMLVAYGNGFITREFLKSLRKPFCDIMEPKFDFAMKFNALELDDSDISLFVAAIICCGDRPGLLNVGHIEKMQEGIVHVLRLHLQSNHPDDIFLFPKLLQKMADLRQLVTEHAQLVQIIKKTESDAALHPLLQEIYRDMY
Assay: GAL4-PPARα luciferase reporter assay in COS-1 cells
Format: cell-based
Conditions: relative luciferase activity, vehicle (DMSO) control regarded as 1, 24 hours
Text: (§1) Evaluation of PPAR α or γ Agonistic Activity
(§2) Construction of Reporter Plasmid
(§3) By inserting a gene fragment encoding the ligand binding domain of human PPARα (including amino acid residues 167-468) or a gene fragment encoding the ligand binding domain of human PPARγ (including amino acids residue 204-505) into a multicloning site of expressing vector pM containing DNA binding domain of yeast GAL4 protein (Clonetech), a vector plasmid for expressing a fused protein of GAL4 protein DNA binding domain and human PPARα or γ ligand binding domain was obtained.
(§4) As a reporter plasmid, pGL3-Basic Vector containing firefly luciferase gene (Promega Corporation) was used wherein Gal 4-responsive sequence UAS and rabbit β-globin promoter were inserted.
(§5) For the correction of transformation efficiency, a plasmid pβgal control (Clonetech) containing lacZ gene, was used.
COS-1 cells were cultured in the phenol red free Dulbecco's Modified Eagles Medium (DMEM) (Gibco) supplemented with 5% activated charcoal/dextran stripped fetal bovine serum at 37° C. with 5% carbon dioxide. […] The luciferase activity therein was measured by a luminometer using the reagent for measuring luciferase which was also accompanied to said System.
The PPARα- or γ-agonistic activity was expressed as a relative activity where the luciferase activity in the well to which the vehicle (DMSO) was added as control was regarded as 1. […]

| SMILES | PPARα-agonistic activity (10 μM) |
| --- | --- |
| Cc1ccc(C(=O)c2c(C)n(-c3ccc(COC4(C(=O)O)CCC4)cc3)c3ccccc23)cc1 [Example 86, 1-({4-[2-Methyl-3-(4-methylbenzoyl)-1H-indol-1-yl]benzyl}oxy)cyclobutane carboxylic acid] | 1.3 |

Target: T2, human PPARγ ligand binding domain fused to GAL4 DNA binding domain (Homo sapiens, UniProt P37231)
T2 construct: human PPARγ (including amino acids residue 204-505); expressed in transfected cells; host or cells: COS-1 cells
T2 sequence (P37231 204-505): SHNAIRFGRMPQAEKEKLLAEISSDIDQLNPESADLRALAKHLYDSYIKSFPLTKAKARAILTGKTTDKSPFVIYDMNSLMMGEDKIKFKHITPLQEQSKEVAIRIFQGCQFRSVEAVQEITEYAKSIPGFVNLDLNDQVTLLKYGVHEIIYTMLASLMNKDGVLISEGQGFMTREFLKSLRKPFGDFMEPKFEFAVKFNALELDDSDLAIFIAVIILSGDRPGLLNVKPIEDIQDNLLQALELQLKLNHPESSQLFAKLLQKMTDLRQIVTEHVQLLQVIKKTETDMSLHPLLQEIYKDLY
Assay: GAL4-PPARγ luciferase reporter assay in COS-1 cells
Format: cell-based
Conditions: 10 μM, relative luciferase activity, vehicle (DMSO) control regarded as 1, 24 hours
Text: as §1, §2, §3, §4, §5
COS-1 cells were cultured in the phenol red free Dulbecco's Modified Eagles Medium (DMEM) (Gibco) supplemented with 5% activated charcoal/dextran stripped fetal bovine serum at 37° C. with 5% carbon dioxide. The COS-1 cells were plated at a concentration of 5×10^4 cells/well into a 24-well plate, and were incubated overnight. The medium was replaced with a fresh medium supplemented […] 5% activated charcoal/dextran treated fetal bovine serum. Further, the cells were transfected using Lipofectamine plus reagent (Gibco) with plasmids GAL4-PPARα- or γ-expressing plasmid (5 ng), the reporter plasmid (50 ng), and pβgal control (350 ng) per well. After incubation for 4 hours, the medium was changed with a fresh medium supplemented with 5% activated charcoal/dextran treated fetal bovine serum. Then, the compound of the present invention was added thereto in such an amount that the final concentration thereof is 0.1 μM, 0.3 μM, 1 μM, 3 μM or 10 μM. After the cultivation for 24 hours, the cells were lysed with a solution for cell lysis accompanied to the Luciferase Assay System (Promega Corporation). The luciferase activity therein was measured by a luminometer using the reagent for measuring luciferase which was also accompanied to said System.
The PPARα- or γ-agonistic activity was expressed as a relative activity where the luciferase activity in the well to which the vehicle (DMSO) was added as control was regarded as 1. The PPARα-agonistic activity and the PPARγ-agonistic activity at each 10 μM, and the maximum PPARγ-agonistic activity (%) of the compound of the present invention per the maximum PPARγ-agonistic activity (100%) of pioglitazone are shown in the following Table 1.

| SMILES | PPARγ-agonistic activity (10 μM) |
| --- | --- |
| Cc1ccc(C(=O)c2c(C)n(-c3ccc(COC4(C(=O)O)CCC4)cc3)c3ccccc23)cc1 [Example 86, 1-({4-[2-Methyl-3-(4-methylbenzoyl)-1H-indol-1-yl]benzyl}oxy)cyclobutane carboxylic acid] | 2.8 |

Same assay, conditions: maximum PPARγ-agonistic activity per the maximum PPARγ-agonistic activity (100%) of pioglitazone

| SMILES | Emax [%] |
| --- | --- |
| Cc1ccc(C(=O)c2cccn2C/C=C\c2ccc(COC(C)(C)C(=O)O)cc2)cc1 [Compound 1] | 51 |
| Cc1ccc(C(=O)c2c(C)n(C/C=C/c3ccc(COC(C)(C)C(=O)O)cc3)c3ncccc23)cc1 [Compound 20] | 68 |
| Cc1ccc(C(=O)c2ccn(C/C=C/c3ccc(CO[C@H](C)C(=O)O)cc3)n2)cc1 [Compound 21] | 71 |
| Cc1ccc(C(=O)c2nn(C/C=C/c3ccc(COC(C)(C)C(=O)O)cc3)c3ccccc23)cc1 [Compound 35] | 57 |
| COc1ccc2c(C(=O)c3ccc(C)cc3)c(C)n(Cc3ccc(CO[C@H](C)C(=O)O)cc3)c2c1 [Compound 46] | 26 |
| COc1ccc2c(C(=O)c3ccc(C)cc3)c(C)n(Cc3cccc(CO[C@H](C)C(=O)O)c3)c2c1 [Compound 54] | 39 |
| Cc1ccc(C(=O)c2c(C)n(Cc3cccc(CO[C@H](C)C(=O)O)c3)c3ncccc23)cc1 [Compound 59] | 41 |
| Cc1ccc(C(=O)c2cccn2Cc2ccc(/C=C/CO[C@H](C)C(=O)O)cc2)cc1 [Compound 68] | 71 |
| Cc1ccc(C(=O)c2c(C)n(Cc3ccc(/C=C/COC(C)(C)C(=O)O)cc3)c3ccccc23)cc1 [Compound 79] | 35 |
| COc1ccc2c(C(=O)c3ccc(C)cc3)c(C)n(Cc3ccc(/C=C/COC(C)(C)C(=O)O)cc3)c2c1 [Compound 81] | 42 |
| Cc1ccc(C(=O)c2c(C)c3ccc(C(F)(F)F)cc3n2Cc2ccc(/C=C/COC(C)(C)C(=O)O)cc2)cc1 [Compound 83] | 13 |
| Cc1ccc(C(=O)c2c(C)n(-c3ccc(COC4(C(=O)O)CCC4)cc3)c3ccccc23)cc1 [Example 86, 1-({4-[2-Methyl-3-(4-methylbenzoyl)-1H-indol-1-yl]benzyl}oxy)cyclobutane carboxylic acid] | 20 |

Test system: male db/db mice
Assay: Hypoglycemic activity in db/db mice (blood glucose level)
Format: in vivo
Conditions: 30 mg/kg orally once a day for 2 weeks, blood glucose level on the last day
Experimental: The test compounds as disclosed in Examples were dissolved or suspended in a 0.5% carbomethyl cellulose solution, and orally administered to male db/db mice (7 to 8 weeks old) at a final dose of 30 mg/kg once a day for 2 weeks. On the last day, the blood was taken at the tail vein, and immediately thereafter, perchloric acid was added for removing proteins, and the blood glucose level was measured by Glucolse CII Test Wako (Wako Pure Industries, Ltd.).
The hypoglycemic activity was calculated by the following equation.

| SMILES | Hypoglycemic Activity (%) |
| --- | --- |
| Cc1ccc(C(=O)c2c(C)n(C/C=C/c3ccc(COC(C)(C)C(=O)O)cc3)c3ncccc23)cc1 [Example 20, 2-Methyl-2-[(4-{(1E)-3-[2-Methyl-3-(4-methylbenzoyl)-1H-pyrrolo[2,3-b]pyridin-1-yl]prop-1-en-1-yl}benzyl)oxy]propionic acid] | 50.4 |
| Cc1ccc(C(=O)c2nn(/C=C/c3ccc(CO[C@H](C)C(=O)O)cc3)c3ccccc23)cc1 [Example 34, (2R)-2-[(4-{(E)-2-[3-(4-Methylbenzoyl)-1H-indazol-1-yl]vinyl}benzyl)oxy]propanoic acid] | 47.4 |
| Cc1ccc(C(=O)c2nn(C/C=C/c3ccc(COC(C)(C)C(=O)O)cc3)c3ccccc23)cc1 [Example 35, 2-Methyl-2-[(4-{(1E)-3-[3-(4-methylbenzoyl)-1H-indazol-1-yl]prop-1-en-1-yl}benzyl)oxy]propanoic acid] | 27.3 |
| COc1ccc2c(C(=O)c3ccc(C)cc3)c(C)n(Cc3cccc(CO[C@H](C)C(=O)O)c3)c2c1 [Example 54, (2R)-2-[(3-{[6-Methoxy-2-methyl-3-(4-methylbenzoyl)-1H-indol-1-yl]methyl-}benzyl)oxy]propionic acid] | 47.7 |

From patent US7781479B2, “Heteroaryl derivatives” (Dainippon Sumitomo Pharma Co., Ltd., priority 2005, dated 2010)
